Experimental data from patent US10463669B2, “Composition for treating or preventing liver cancer” (Seoul National University R&DB Foundation, priority 2016, dated 2019).

Legend:
[1] = system: β-catenin and SetD1A binding to the TERT promoter in Huh7 cells; experiment: Chromatin immunoprecipitation (ChIP) at the TERT promoter; format: cell-based, human; conditions: HCC (Huh7) cells, with or without 300 μmol/L H2O2
Method: As it has been described before (Lim S O, et al. Gastroenterology. 2008; 135: 2128-40, 40 el-8.; Hoffmeyer K, et al. Science. 2012; 336: 1549-54.), several modified ChIP (chromatin immunoprecipitation) tests were carried out. In the presence or absence of a PI3K inhibitor, an AKT inhibitor, or a GSK3β inhibitor, Huh7 cells were cultured for 4 days with or without a treatment of 300 μmol/L H2O2. Under mild shaking for 20 minutes at room temperature, the cells were fixed by using 1% paraformaldehyde. After that, the cells were rinsed twice with ice-cold PBS; resuspended with 400 μL of micrococcal nuclease buffer (50 mmol/L TrisHCl [pH 8.0], 5 mmol/L CaC12, 100 μg/mL BSA, 10 mmol/L KCl, and protease inhibitor cocktail [Roche, Basel, Switzerland; 4693159001]); and disrupted with 2 mm-diameter zirconium beads (Watson); to have micrococcal nuclease digestion (New England Biolabs, Beverly, Mass., USA; M0247S). Chromatin (150 μg) was collected and diluted in a dilution buffer (0.1% NP-40, 2 mmol/L EDTA, 150 mmol/L NaCl, 20 mmol/L TrisHCl [pH 8.0], protease inhibitor cocktail [Roche]), and a phosphatase inhibitor cocktail [Calbiochem]), and then subjected to pre-clearing with 2 μg digested salmon sperm DNA, 10 μL preimmune serum (Santa Cruz Biotechnology; sc-2027), and Dynabeads Protein G (Life Technologies; 1004D) for 2 hours at 4° C. After the immunoprecipitation, 20 μL of Dynabeads Protein G were added thereto and the culture was continued for 2 hours. The Dynabeads were washed continuously for 10 minutes with TSE 1 (0.1% SDS, 1% Triton X-100, 2 mmol/L EDTA, 20 mmol/L TrisHCl, and 150 mmol/L NaCl), TSE II (0.1% SDS, 1% Triton X-100, 2 mmol/L EDTA, 20 mmol/L TrisHCl, and 500 mmol/L NaCl), and buffer III (0.25 mol/L LiCl, 1% NP-40, 1% deoxycholate, 1 mmol/L EDTA, and 10 mmol/L TrisHCl). After that, the beads were washed 3 times with TE buffer, and extraction was made by using 1% SDS and 0.1 mol/L NaHCO3. To have reverse formaldehyde cross-linking, the elution solution was heated overnight at 65° C. By using NucleoSpin DNA clean-up kit, DNA debris were purified. By using primers specific to the TERT promoter region, the PCR amplified product was quantified by qPCR (ABI 7300; Applied Biosystems, Foster City, Calif., USA). The PCR amplification was normalized against the TERT intron. The primer sequences are as follows: β-catenin interaction site for ChIP (forward primer: TCCCGGGTCCCCGGCCCA (SEQ ID NO:8); reverse primer: […] (SEQ ID NO:9)) and TERT intron for ChIP (forward primer: […] (SEQ ID NO:10); reverse primer: […] (SEQ ID NO:11)). For each of the β-catenin interaction site which has been recorded before, 20-22 bp were added. The antibodies that are used are as follows: rabbit polyclonal anti-β-catenin (1:200, Abcam, Cambridge, Mass., USA; ab6302), mouse monoclonal anti-RNA polymerase II (1:50, Covance, Princeton, N.J., USA; MMS-126R), and rabbit polyclonal anti-SETD1A (1:100, Novus Biologicals, Littleton, Colo., USA; NBP1-81513).
Inventors of the present invention made an investigation to see whether or not the increased chromatin accessibility in TERT promoter during TERT transcription is related with β-catenin. To do so, by using intrinsic β-catenin and an antibody against histone methyl transferase SetD1A which has been reported to promote the TERT transcription based on chromatin remodeling, chromatin immunoprecipitation was carried out. When a PI3K or AKT inhibitor is treated together for chromatin immunoprecipitation, β-catenin and SetD1A, which bind to the TERT promoter in HCC cells, were reduced even in the presence of H2O2 (FIGS. 3A and 3B). However, when the treatment is carried out also with a GSK3p inhibitor, increased binding of β-catenin and SetD1A was shown regardless of a treatment with H2O2 (FIG. 3C).

Hep3B cells = experiment: Cell proliferation / cell viability, MTS assay; format: cell-based; conditions: Homo sapiens, treated for 96 hours
Method: (§1) HCC cell lines (Huh7 and Hep3B) were obtained from Korean Cell Line Bank (KCLB, Seoul, Korea). THLE-3 cell line (immortalized human liver […] cell line produced by infection with SV40 large T antigen) was obtained from ATCC (American Type Culture Collection). Cell line authentication by KCLB and ATCC was carried out by using DNA fingerprinting as a short tandem repeat analysis. All cell lines were tested for mycoplasma contamination. HCC cells were cultured in DMEM (Welgene, Gyeongsan-si, Korea) medium complemented with 10% fetal bovine serum (GenDepot, Barker, Tex., USA) in a humidified 5% CO2 incubator at 37° C. As it has been recommended by the ATCC manual, THLE-3 cells were cultured in BEGM (Lonza) medium complemented with 10% fetal bovine serum in a humidified 5% CO2 incubator at 37° C.
(§2) As it has been described before (10), the cell viability was measured by using Cell Titer 96 MTS (Promega). Cells were sewn in an amount of 500 to 1000 cells per well, and then treated for 96 hours at a pharmaceutical concentration as described in each graph. Each analysis was repeated 3 times at least. After plotting the data, IC50 values were obtained by using GraphPad software. By using Flexstation 3 multimode plate reader (Molecular Devices), optical density showing formazan production was measured at 490 nm. […]

Huh7 cells = experiment: Cell proliferation / cell viability, MTS assay; format: cell-based; conditions: Homo sapiens, Huh-7, treated for 96 hours
Method: as §1, §2

[2] = system: telomerase activity in HCC cell lines (Huh7 and Hep3B); experiment: Telomerase activity, TRAP assay; format: cell-based, human
Method: (§3) To have quantitative determination of the telomerase activity, TRAP assay was carried out by using TRAPEZE® RT Telomerase Detection Kit (Millipore, Darmstadt, Germany; […]). According to the manual, the whole protein extract (100 ng) was used for each reaction.

[3] = system: telomerase activity in THLE-3 cells; experiment: Telomerase activity, TRAP assay; format: cell-based, human; conditions: 150 μmol/L H2O2-treated THLE-3 cells
Method: as §3

- IC50 (Hep3B cells): < 30 µM
- IC50 (Huh7 cells): < 30 µM
Structure (SMILES): CC[C@H](Nc1ncnc2nc[nH]c12)c1nc2cccc(F)c2c(=O)n1-c1ccccc1 [idelalisib, 5-fluoro-3-phenyl-2-[(1S)-1-(7H-purin-6-ylamino)propyl]-4(3H)-quinazolinone]
- SetD1A binding to the TERT promoter [1]: reduced
- β-catenin binding to the TERT promoter [1]: reduced
- telomerase activity ([2]; 300 μmol/L H2O2-treated HCC cell lines): reduced
- ROS-mediated increase in telomerase activity ([2]; H2O2-treated cells): almost completely inhibited
- telomerase activity [3]: not
